{"source": "patent US8785488B2", "about": "(Exelixis Patent Company LLC, priority 2009, dated 2014)", "key": {"human TGR5 (h-TGR5)": {"biological_target": "T1, human TGR5 (h-TGR5) (Homo sapiens, UniProt Q8TDU6)", "T1 construct": "expressed in transfected cells", "T1 sequence (Q8TDU6 1-330)": "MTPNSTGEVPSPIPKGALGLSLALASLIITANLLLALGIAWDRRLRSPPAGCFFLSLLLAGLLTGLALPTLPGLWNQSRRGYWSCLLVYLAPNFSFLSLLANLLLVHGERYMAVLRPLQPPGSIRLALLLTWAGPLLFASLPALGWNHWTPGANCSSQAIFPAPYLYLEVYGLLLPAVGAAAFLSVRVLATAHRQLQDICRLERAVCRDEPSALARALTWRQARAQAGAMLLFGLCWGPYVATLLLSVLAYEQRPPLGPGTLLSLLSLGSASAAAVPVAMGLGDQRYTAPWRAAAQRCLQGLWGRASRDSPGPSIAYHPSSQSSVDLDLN", "assay": "TGR5/CRE-Luciferiase Assay (HEK 293 hTGR5/CRE-Luc cells)", "assay_type": "cell-based", "conditions": "h-TGR5 CRE-Luc EC50, Table 1; read-out: CRE-Luc (EC50)", "method_in_brief": "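HEK293 cells stably carrying hTGR5 and a CRE-luciferase reporter were exposed to serially diluted compounds (diluted in DMEM with 5% DMSO) for 6 h. Cells were then lysed in luciferase buffer, luminescence was read, and EC50 values were derived from dose-response curves.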"}, "h-TGR5": {"biological_target": "T2, h-TGR5 (Homo sapiens, UniProt Q8TDU6)", "T2 construct": "expressed in transfected cells", "T2 sequence (Q8TDU6 1-330)": "T1 sequence (Q8TDU6 1-330)", "assay": "TGR5 cAMP Assay using Cisbio cAMP Dynamic2 htrf kit (hTGR5CRE-luc HEK 293 cells)", "assay_type": "cell-based", "conditions": "h-TGR5 cAMP EC50, Table 1; read-out: cAMP (EC50)", "method_in_brief": "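[…], 4000 hTGR5CRE-luc HEK 293 cells per well, with 0.5 mM IBMX and d2-cAMP, were incubated 30 min at room temperature with compounds in 8-point half-log series, in quadruplicate.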"}}, "note": "pEC50: −log10 of the molar value.", "data": [{"smiles": "CCOC(=O)NS(=O)(=O)c1ccc(CSc2ncc(C(C)(C)c3ccc(Cl)c(Cl)c3)n2-c2ccc(F)c(OC)c2)c(Cl)c1", "note": "[ethyl ({3-chloro-4-[({5-[1-(3,4-dichlorophenyl)-1-methylethyl]-1-[4-fluoro-3-(methyloxy)phenyl]-1H-imidazol-2-yl}thio)methyl]phenyl}sulfonyl)carbamate]", "values": [{"measurement": "pEC50", "setting": "human TGR5 (h-TGR5)", "result": "6.00 to 7.00"}, {"measurement": "pEC50", "setting": "h-TGR5", "result": "6.00 to 7.00"}]}, {"smiles": "CC(C)(c1ccc(Cl)c(Cl)c1)c1cnc(SCc2ccc(C(=O)NCCc3c[nH]cn3)cc2F)n1-c1ccc(F)cc1", "note": "[4-[({5-[1-(3,4-dichlorophenyl)-1-methylethyl]-1-(4-fluorophenyl)-1H-imidazol-2-yl}thio)methyl]-3-fluoro-N-[2-(1H-imidazol-4-yl)ethyl]benzamide]", "values": [{"measurement": "pEC50", "setting": "human TGR5 (h-TGR5)", "result": "6.00 to 7.00"}, {"measurement": "pEC50", "setting": "h-TGR5", "result": "6.00 to 7.00"}]}, {"smiles": "CC(C)(c1ccc(S(N)(=O)=O)c(Cl)c1)c1cnc(SCc2c(F)cc(C(=O)O)cc2F)n1-c1ccc(F)cn1", "note": "[4-({[5-{1-[4-(aminosulfonyl)-3-chlorophenyl]-1-methylethyl}-1-(5-fluoropyridin-2-yl)-1H-imidazol-2-yl]thio}methyl)-3,5-difluorobenzoic acid]", "values": [{"measurement": "pEC50", "setting": "human TGR5 (h-TGR5)", "result": "6.00 to 7.00"}, {"measurement": "pEC50", "setting": "h-TGR5", "result": "6.00 to 7.00"}]}, {"smiles": "CC(C)(c1ccc(S(N)(=O)=O)c(Cl)c1)c1cnc(SCc2ccc(Cl)c(-c3nnn[nH]3)c2)n1-c1ccc(F)c(F)c1", "note": "[2-chloro-4-{1-[2-({[4-chloro-3-(1H-tetrazol-5-yl)phenyl]methyl}thio)-1-(3,4-difluorophenyl)-1H-imidazol-5-yl]-1-methylethyl}benzenesulfonamide]", "values": [{"measurement": "pEC50", "setting": "human TGR5 (h-TGR5)", "result": "6.00 to 7.00"}, {"measurement": "pEC50", "setting": "h-TGR5", "result": "6.00 to 7.00"}]}, {"smiles": "COc1cc(-n2c(C(C)(C)c3ccc(Cl)c(Cl)c3)cnc2SCc2c(F)cc(C(=O)O)cc2Cl)ccc1F", "note": "[3-chloro-4-[({5-[1-(3,4-dichlorophenyl)-1-methylethyl]-1-[4-fluoro-3-(methyloxy)phenyl]-1H-imidazol-2-yl}thio)methyl]-5-fluorobenzoic acid]", "values": [{"measurement": "pEC50", "setting": "human TGR5 (h-TGR5)", "result": "> 7.00"}, {"measurement": "pEC50", "setting": "h-TGR5", "result": "> 7.00"}]}, {"smiles": "COc1cc(C(C)(C)c2cnc(SCc3c(F)cc(C(=O)N[C@@H](CCCN)C(=O)O)cc3Cl)n2-c2ccc(F)cc2)ccc1Cl", "note": "[N-2-{[3-chloro-4-({[5-{1-[4-chloro-3-(methyloxy)phenyl]-1-methylethyl}-1-(4-fluorophenyl)-1H-imidazol-2-yl]thio}methyl)-5-fluorophenyl]carbonyl}-L-ornithine]", "values": [{"measurement": "pEC50", "setting": "human TGR5 (h-TGR5)", "result": "> 7.00"}, {"measurement": "pEC50", "setting": "h-TGR5", "result": "> 7.00"}]}, {"smiles": "CCNC(=O)NS(=O)(=O)c1ccc(CSc2ncc(C(C)(C)c3ccc(Cl)c(OC)c3)n2-c2ccc(F)cc2)c(Cl)c1", "note": "[3-chloro-4-({[5-{1-[4-chloro-3-(methyloxy)phenyl]-1-methylethyl}-1-(4-fluorophenyl)-1H-imidazol-2-yl]thio}methyl)-N-[(ethylamino)carbonyl]benzenesulfonamide]", "values": [{"measurement": "pEC50", "setting": "human TGR5 (h-TGR5)", "result": "6.00 to 7.00"}, {"measurement": "pEC50", "setting": "h-TGR5", "result": "> 7.00"}]}, {"smiles": "COc1cc(C(C)(C)c2cnc(SCc3ccc(S(=O)(=O)NC(=O)NN4CCOCC4)cc3Cl)n2-c2ccc(F)cc2)ccc1Cl", "note": "[3-chloro-4-({[5-{1-[4-chloro-3-(methyloxy)phenyl]-1-methylethyl}-1-(4-fluorophenyl)-1H-imidazol-2-yl]thio}methyl)-N-[(morpholin-4-ylamino)carbonyl]benzenesulfonamide]", "values": [{"measurement": "pEC50", "setting": "human TGR5 (h-TGR5)", "result": "6.00 to 7.00"}, {"measurement": "pEC50", "setting": "h-TGR5", "result": "> 7.00"}]}, {"smiles": "CC(C)(c1ccc(Cl)c(Cl)c1)c1c(Cl)nc(SCc2ccc(-c3nnn[nH]3)c(Cl)c2)n1-c1ccc(F)cc1", "note": "[5-{2-chloro-4-[({4-chloro-5-[1-(3,4-dichlorophenyl)-1-methylethyl]-1-(4-fluorophenyl)-1H-imidazol-2-yl}thio)methyl]phenyl}-1H-tetrazole]", "values": [{"measurement": "pEC50", "setting": "human TGR5 (h-TGR5)", "result": "6.00 to 7.00"}, {"measurement": "pEC50", "setting": "h-TGR5", "result": "5.00 to 6.00"}]}, {"smiles": "CC(C)(c1ccc(Cl)c(Cl)c1)c1cnc(SCc2ccc(Cl)c(-c3nnn[nH]3)c2)n1-c1cccc(Cl)c1", "note": "[5-{2-chloro-5-[({1-(3-chlorophenyl)-5-[1-(3,4-dichlorophenyl)-1-methylethyl]-1H-imidazol-2-yl}thio)methyl]phenyl}-1H-tetrazole]", "values": [{"measurement": "pEC50", "setting": "human TGR5 (h-TGR5)", "result": "6.00 to 7.00"}, {"measurement": "pEC50", "setting": "h-TGR5", "result": "6.00 to 7.00"}]}, {"smiles": "COc1cc(C(C)(C)c2cnc(SCc3ccc(S(=O)(=O)NC(=O)NC4CCCC4)cc3Cl)n2-c2ccc(F)cc2)ccc1Cl", "note": "[3-chloro-4-({[5-{1-[4-chloro-3-(methyloxy)phenyl]-1-methylethyl}-1-(4-fluorophenyl)-1H-imidazol-2-yl]thio}methyl)-N-[(cyclopentylamino)carbonyl] benzenesulfonamide]", "values": [{"measurement": "pEC50", "setting": "human TGR5 (h-TGR5)", "result": "> 7.00"}, {"measurement": "pEC50", "setting": "h-TGR5", "result": "> 7.00"}]}, {"smiles": "CC(C)NC(=O)NS(=O)(=O)c1ccc(CSc2ncc(C(C)(C)c3ccc(F)c(F)c3)n2-c2ccc(F)cc2)c(Cl)c1", "note": "[3-chloro-4-[({5-[1-(3,4-difluorophenyl)-1-methylethyl]-1-(4-fluorophenyl)-1H-imidazol-2-yl}thio)methyl]-N-{[(1-methylethyl)amino]carbonyl}benzenesulfonamide]", "values": [{"measurement": "pEC50", "setting": "human TGR5 (h-TGR5)", "result": "6.00 to 7.00"}, {"measurement": "pEC50", "setting": "h-TGR5", "result": "6.00 to 7.00"}]}, {"smiles": "COc1cc(C(C)(C)c2cnc(SCc3c(F)cc(N)cc3Cl)n2-c2ccc(F)cc2)ccc1Cl", "note": "[3-chloro-4-({[5-{1-[4-chloro-3-(methyloxy)phenyl]-1-methylethyl}-1-(4-fluorophenyl)-1H-imidazol-2-yl]thio}methyl)-5-fluoroaniline]", "values": [{"measurement": "pEC50", "setting": "human TGR5 (h-TGR5)", "result": "> 7.00"}, {"measurement": "pEC50", "setting": "h-TGR5", "result": "> 7.00"}]}, {"smiles": "CC(=O)COc1ccc(CSc2ncc(C(C)(C)c3ccc(Cl)c(Cl)c3)n2-c2ccc(F)cc2)cc1S(N)(=O)=O", "note": "[5-[({5-[1-(3,4-dichlorophenyl)-1-methylethyl]-1-(4-fluorophenyl)-1H-imidazol-2-yl}thio)methyl]-2-[(2-oxopropyl)oxy]benzenesulfonamide]", "values": [{"measurement": "pEC50", "setting": "human TGR5 (h-TGR5)", "result": "> 7.00"}, {"measurement": "pEC50", "setting": "h-TGR5", "result": "6.00 to 7.00"}]}, {"smiles": "CC(C)(c1ccc(Cl)c(Cl)c1)c1cnc(SCc2c(F)cc(C(=O)O)cc2Cl)n1-c1ccc(F)c(OCCCO)c1", "note": "[3-chloro-4-{[(5-[1-(3,4-dichlorophenyl)-1-methylethyl]-1-{4-fluoro-3-[(3-hydroxypropyl)oxy]phenyl}-1H-imidazol-2-yl)thio]methyl}-5-fluorobenzoic acid]", "values": [{"measurement": "pEC50", "setting": "human TGR5 (h-TGR5)", "result": "6.00 to 7.00"}, {"measurement": "pEC50", "setting": "h-TGR5", "result": "6.00 to 7.00"}]}, {"smiles": "COc1cc(C(C)(C)c2cnc(SCc3c(F)cc(CCCCNC(=N)N)cc3F)n2-c2ccc(F)cc2)ccc1Cl", "note": "[1-{4-[4-({[5-{1-[4-chloro-3-(methyloxy)phenyl]-1-methylethyl}-1-(4-fluorophenyl)-1H-imidazol-2-yl]thio}methyl)-3,5-difluorophenyl]butyl}guanidine]", "values": [{"measurement": "pEC50", "setting": "human TGR5 (h-TGR5)", "result": "> 7.00"}, {"measurement": "pEC50", "setting": "h-TGR5", "result": "> 7.00"}]}, {"smiles": "CC(C)(c1ccc2onc(N)c2c1)c1cnc(SCc2c(F)cc(C(=O)O)cc2F)n1-c1ccc(F)cc1", "note": "[4-[({5-[1-(3-amino-1,2-benzisoxazol-5-yl)-1-methylethyl]-1-(4-fluorophenyl)-1H-imidazol-2-yl}thio)methyl]-3,5-difluorobenzoic acid]", "values": [{"measurement": "pEC50", "setting": "human TGR5 (h-TGR5)", "result": "> 7.00"}, {"measurement": "pEC50", "setting": "h-TGR5", "result": "> 7.00"}]}, {"smiles": "CC(C)(c1ccc(Cl)c(Cl)c1)c1cnc(SCc2ccc(F)c(S(C)(=O)=O)c2)n1-c1ccc(F)cc1", "note": "[5-[1-(3,4-dichlorophenyl)-1-methylethyl]-2-({[4-fluoro-3-(methylsulfonyl)phenyl]methyl}thio)-1-(4-fluorophenyl)-1H-imidazole]", "values": [{"measurement": "pEC50", "setting": "human TGR5 (h-TGR5)", "result": "> 7.00"}, {"measurement": "pEC50", "setting": "h-TGR5", "result": "6.00 to 7.00"}]}, {"smiles": "COc1cc(C(C)(C)c2cnc(NCc3ccc(Cl)cc3F)n2-c2ccc(F)cc2)ccc1Cl", "note": "[N-[(4-chloro-2-fluorophenyl)methyl]-5-{1-[4-chloro-3-(methyloxy)phenyl]-1-methylethyl}-1-(4-fluorophenyl)-1H-imidazol-2-amine]", "values": [{"measurement": "pEC50", "setting": "human TGR5 (h-TGR5)", "result": "5.00 to 6.00"}, {"measurement": "pEC50", "setting": "h-TGR5", "result": "5.00 to 6.00"}]}]}
